Values quoted from earlier work, collected in patent US20230241051A1, “LONG-ACTING FORMULATIONS” (Janssen Pharmaceutica NV, priority 2020, published 2023).

Tests used:
Details in all cases: cited from earlier work
Mycobacterium leprae = system: Mycobacterium leprae
M. tuberculosis = system: M. tuberculosis
[1] = biological target: mycobacterial ATP synthase (Mycobacterium tuberculosis, UniProt P9WPS1+P9WPV7)
mycobacterial ATP synthase, sequence (P9WPS1 whole entry, looked up): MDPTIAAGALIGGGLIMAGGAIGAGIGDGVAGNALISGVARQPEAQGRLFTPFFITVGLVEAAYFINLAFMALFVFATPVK
mycobacterial ATP synthase, sequence (P9WPV7 whole entry, looked up): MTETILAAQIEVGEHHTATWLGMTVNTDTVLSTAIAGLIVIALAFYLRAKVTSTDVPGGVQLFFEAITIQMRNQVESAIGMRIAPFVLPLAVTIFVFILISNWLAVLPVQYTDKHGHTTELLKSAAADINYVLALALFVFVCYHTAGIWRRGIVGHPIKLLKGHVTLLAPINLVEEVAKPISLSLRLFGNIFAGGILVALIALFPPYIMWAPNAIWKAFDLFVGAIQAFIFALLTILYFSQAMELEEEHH

In the case of `COc1nc2ccc(Br)cc2cc1[C@@H](c1ccccc1)[C@@](O)(CCN(C)C)c1cccc2ccccc12` [bedaquiline], the “minimal dose killing 99% of bacilli” value (Mycobacterium leprae; M. lepra) is given as less than 5.0 mg/kg/wk, the “activity against Mycobacterium leprae” value (Mycobacterium leprae; mice) is given as “bactericidal” and the “minimal dose killing 99% of bacilli” value (M. tuberculosis) is given as 30 mg/kg/wk. For the same compound, the “selectivity index for mycobacterial ATP synthase versus eukaryotic mitochondrial ATP synthase” value [1] was “more than 20000”.
